We go through 14 molecules from ChEMBL document CHEMBL1141136, “Discovery of potent poly(ADP-ribose) polymerase-1 inhibitors from the modification of indeno[1,2-c]isoquinolinone” (J Med Chem, 2005).

In general, IC50 refers to the concentration needed to halve the response being measured. Read a low IC50 as higher potency.

Where “and” joins values, the source holds several entries; their conditions need not be identical. Equal entries are not always repeated.

For the assay, the target named is Poly [ADP-ribose] polymerase 1 (Homo sapiens, UniProt P09874). Kind of assay: Inhibitory concentration against purified poly ADP-ribose polymerase-1 done in PARP inhibition assay kit.
Chain of Poly [ADP-ribose] polymerase 1 (P09874 whole entry): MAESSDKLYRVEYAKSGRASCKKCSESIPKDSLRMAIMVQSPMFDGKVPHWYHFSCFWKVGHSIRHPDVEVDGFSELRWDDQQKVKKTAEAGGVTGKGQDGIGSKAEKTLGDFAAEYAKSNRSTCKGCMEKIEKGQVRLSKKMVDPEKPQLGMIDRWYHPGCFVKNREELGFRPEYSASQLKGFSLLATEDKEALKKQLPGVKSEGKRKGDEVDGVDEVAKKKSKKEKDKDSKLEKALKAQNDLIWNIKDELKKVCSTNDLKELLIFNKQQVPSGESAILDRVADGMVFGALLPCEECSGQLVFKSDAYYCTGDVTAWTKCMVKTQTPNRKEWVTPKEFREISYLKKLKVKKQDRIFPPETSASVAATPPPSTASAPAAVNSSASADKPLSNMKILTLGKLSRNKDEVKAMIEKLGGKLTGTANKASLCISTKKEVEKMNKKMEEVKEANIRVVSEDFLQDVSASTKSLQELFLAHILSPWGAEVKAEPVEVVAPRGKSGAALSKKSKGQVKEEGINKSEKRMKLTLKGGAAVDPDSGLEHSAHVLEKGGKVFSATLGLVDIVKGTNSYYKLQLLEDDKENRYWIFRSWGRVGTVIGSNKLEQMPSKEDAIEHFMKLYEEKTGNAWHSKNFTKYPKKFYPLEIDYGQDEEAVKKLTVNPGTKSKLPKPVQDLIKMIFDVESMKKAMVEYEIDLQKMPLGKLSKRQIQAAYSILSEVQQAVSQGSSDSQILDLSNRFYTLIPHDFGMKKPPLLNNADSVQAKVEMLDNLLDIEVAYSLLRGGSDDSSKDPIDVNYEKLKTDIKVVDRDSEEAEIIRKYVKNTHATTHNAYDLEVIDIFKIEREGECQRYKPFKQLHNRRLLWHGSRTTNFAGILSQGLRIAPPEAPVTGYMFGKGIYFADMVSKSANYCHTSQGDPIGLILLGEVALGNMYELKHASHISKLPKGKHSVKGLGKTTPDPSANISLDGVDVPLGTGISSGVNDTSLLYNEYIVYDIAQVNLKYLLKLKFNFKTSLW
Molecule `O=c1[nH]c2c(c3ccccc13)Cc1cc([N+](=O)[O-])ccc1-2` came in with an IC50 of 300 nM.

Take `O=S(=O)(NCCCNN1CCOCC1)c1cc2c(cc1F)-c1nc(O)c3ccccc3c1C2`: the IC50 was found to be 450 nM.

For the molecule `O=c1[nH]c2c(c3ccccc13)Cc1cc(F)ccc1-2`, the IC50 was determined as 650 nM.

On to `O=C(CN1CCOCC1)Nc1ccc2c(c1)-c1nc(O)c3ccccc3c1C2`, for which the half-maximal inhibitory concentration (IC50) is > 3000 nM and 400 nM.

Regarding `Nc1ccc2c(c1)Cc1c-2[nH]c(=O)c2ccccc12`, the IC50 came to 98 nM.

On to `O=c1[nH]c2c(c3ccccc13)Cc1ccccc1-2`, for which the IC50 was greater than 3000 nM.

Regarding `Nc1ccc2c(c1)-c1[nH]c(=O)c3ccccc3c1C2`, half-maximal inhibition (IC50) required 300 nM.

`CN1CCN(CC(=O)Nc2ccc3c(c2)-c2[nH]c(=O)c4ccccc4c2C3)CC1` yielded an IC50 greater than 3000 nM.

The molecule `O=c1[nH]c2c(c3ccccc13)Cc1cc(S(=O)(=O)NCCCn3ccnc3)ccc1-2` came in with an IC50 of 394 nM.

On to `O=c1[nH]c2c(c3ccccc13)Cc1cc(S(=O)(=O)NCCCc3ccccc3)ccc1-2`, for which the IC50 is greater than 3000 nM.

On to `Oc1nc2c(c3ccccc13)Cc1ccc(F)cc1-2`, for which the IC50 was 500 nM. That is a sub-micromolar value.

On to `O=[N+]([O-])c1ccc2c(c1)-c1nc(O)c3ccccc3c1C2`, for which half-maximal inhibition (IC50) required 500 nM. In other words, the sub-micromolar range.

Turning to `O=S(=O)(O)c1ccc2c(c1)Cc1c-2nc(O)c2ccccc12`, inhibition was half-maximal at 700 nM (IC50).

In turn, `O=c1[nH]c2c(c3ccccc13)Cc1cc(S(=O)(=O)n3ccnc3)c(F)cc1-2` showed an IC50 of 500 nM. The IC50 values of the last two molecules are within 1.5-fold of each other.
